System: p65 nuclear translocation
Assay: HCS counter-screen: TNFα-induced p65 nuclear translocation in U2-OS cells
Type: cell-based
Procedure: Fig.1: Identification of inhibitors specific for DNA damage-induced NF-κB activity. (A) Flowchart representing the high-throughput chemical library screening. A screen/counter-screen strategy was used by stimulating NF-κB in U2-OS cells with etoposide (50 µM for 90 min) and hits were counter-screened with TNFα (10 ng/ml for 20 min). Cells were pre-treated with compounds (10 µM) for 1 hour before stimulation, fixed, and percent p65 nuclear translocation measured by fluorescence microscopy. IC50 values were used for final selection. (B) Comparison of mean p65 nuclear translocation following either etoposide or TNFa stimulation after treatment with each counter-screened hit compound. Values were normalized to etoposide or TNFα positive controls. Specific inhibitors (red) of DNA damage-induced NF-κB signaling were defined by setting cut-off criteria (black line). […] (E) Western blot analysis (top) and quantification (bottom) of NF-κB subunit p65 phosphorylation (S536) following 1-hour pre-treatment with DMSO, MW01 (10 µM), or MW05 (10 µM), in unstimulated, after 90 min irradiation (IR, 20 Gy), or after 20 min TNFα (10 ng/mL) conditions in U2- OS cells. […]
To identify inhibitors that selectively prevent DNA damage-induced NF-κB activation, we established a high-throughput screening platform quantifying p65 nuclear translocation, an essential step in NF-κB activation (Hayden and Ghosh, 2008). […]

Compound | TNFα stimulated IC50 of p65 nuclear translocation
COc1ccc2c(c1OC)c(=O)n1c3ccc(O)cc3c3ccnc2c31 [MW01, 5-Hydroxy-10,11-dimethoxy-9H-benzo[c]indolo[3,2,1-ij][1,5]naphthyridin-9-one] | out of range
COc1ccc2cc3c(N)nn(C(=O)c4cccc(N(C)C)c4)c3nc2c1 [MW05, (3-Amino-7-methoxypyrazolo[3,4-b]quinolin-1-yl)-[3-(dimethylamino)phenyl]methanone] | out of range

Reference: patent publication EP4467141A1, “PYRAZOLO-QUINOLINES AS SELECTIVE INHIBITORS OF GENOTOXIC STRESS-INDUCED IKK/NF- KB PATHWAYS FOR CANCER THERAPY” (Max-Delbrück-Centrum für Molekulare Medizin in der …, priority 2023, dated 2024)
